# Reference: paper PMC6891598, “Application of N-Dodecyl L-Peptide to Enhance Serum Stability while Maintaining Inhibitory Effects on Myometrial Contractions Ex Vivo” (Molecules, 2019)
# “Also recorded” adds a separate entry of the source. Residues, ends and D or L forms follow the SMILES beside them.
# Key:
# [1] = serum stability study (mouse serum/plasma, MS/MS); assay type: in vitro ADME; details: mouse plasma (method: serum), 37 °C, LC-MS/MS, internal standard L-4f; for stability in mouse plasma, in words: incubation up to 2 hours
# Description: Peptide L-4d was further examined for stability in serum and compared to L-PDC31. The two peptides were incubated at 37 °C in mouse plasma. Aliquots were removed at different time intervals and analyzed by mass spectrometry (MS/MS) to detect remaining amount of peptide (Figure 3).
# Serum was […] and kept on ice throughout the procedure. Two blanks were prepared by adding 5 µL of DMSO to 95 µL of serum. These were incubated for 2 h and submitted to the same treatment as the other samples. Two series of vials containing 95 µL of serum were prepared and spiked with either 5 µL of L-PDC31 [0.4 mM] or L-4d [0.4 mM], and incubated for 120, 60, 30, 15, 10 and 5 min, respectively, after which 100 µL of 4% phosphoric acid was added. Two vials were also spiked with 5 µL L-PDC31 and L-4d, respectively, and immediately treated with phosphoric acid (time = 0 min). The vials were incubated for 5 min at 95 °C, cooled on ice for 2 min, treated with 600 µL of cold MeCN containing L-4f (0.02 mM) as internal standard, and incubated at –20 °C overnight. After the incubation period, the vials were vortexed for 2 min and centrifuged at 4 °C for 15 min. The supernatant was transferred into LC-MS vials and analyzed.
# Results were expressed as: (AN/IS/AN0/IS0)∗100
# AN and IS refer, respectively, to the analyte and internal standard MS signals. Both values are compared with initial injection at which time AN0 and IS0 were not incubated.
# [2] = system: murine myometrial tissue (PGF2α-induced contractions; FP); assay: ex vivo mouse myometrial tissue contraction assay (PGF2α-induced); design: species or system mouse (CD-1); details: post-partum CD-1 mouse myometrial strips, Krebs buffer pH 7.4, 37 °C, 20 min pretreatment with peptide at two concentrations, then PGF2α; 4–6 experiments per group, means ± SEM, t-test, p < 0.05 vs vehicle
# Description: (§1) All the peptides were initially tested in an ex vivo mouse myometrial tissue contraction assay. Contractile activity was measured on tissue that was harvested post-partum and treated with prostaglandin F2α (PGFα) alone (control) or in the presence of peptides L-4b-4g, L-7, and L-8. […] Mean tension induced by KCl (as a positive control) was not affected by L-4d.
# Pregnant CD-1 mice (16-17 days gestation, term 19 days) were obtained from Charles River Inc. and used according to a protocol of the Animal Care Committee of Hôpital Sainte-Justine according to the principles of the Guide for the Care and Use of Experimental Animals of the Canadian Council on Animal Care. The animals were maintained on standard laboratory chow under a 12:12 light:dark cycle and allowed free access to chow and water.
# (§2) The uterus from the CD-1 mouse was obtained from the animal immediately after term delivery under anesthesia (2.5% isoflurane). Briefly, a midline abdominal incision was made and the uterine horns were rapidly excised, cleansed carefully of the surrounding connective tissues, and removed. Longitudinal myometrial strips (2 to 3 mm wide and 1 cm long) were dissected free from the uterus and mounted isometrically in organ tissue baths. The initial tension was set at 2 g. The tissue baths contained 20 mL of Krebs buffer of the following composition (in mM): 118 NaCl, 4.7 KCl, 2.5 CaCl2, 0.9 MgSO4, 1 KH2PO4, 11.1 glucose, and 23 NaHCO3 (pH 7.4). The buffer was equilibrated with 95% oxygen/5% carbon dioxide at 37 °C. Isometric tension was measured by a force transducer and recorded by a BIOPAC data acquisition system (BIOPAC MP150, Montreal, PQ, Canada). Experiments were begun after 1 h equilibration. Mean tension of spontaneous contractions was measured using a BIOPAC digital polygraph system (AcqKnowledge); the same parameters were also determined after addition of PGF2α in the presence or the absence of a 20 min-pretreatment with different FP inhibitors. At the start of each experiment, mean tension of spontaneous myometrial contractions was considered as a reference response. Changes in mean tension (g) were expressed as percentages of the initial reference response (% of baseline).
# At the start of each experiments, mean tension of spontaneous myometrial contractions was considered as a reference response. Increase in mean tension (%) was expressed as percentages of (X/Y)-100, where X is the change in mean tension (g) induced by PGF2α and Y is the initial reference response (g). Data are representative of 4–6 experiments per treated group. All results are expressed as means ± SEM and were compared by Independent t-tests. Statistical tests were performed with GraphPad Prism 4.3 software and p < 0.05 was considered statistically significant.
# [3] = system: LPS-induced preterm delivery in pregnant CD-1 mice; assay: LPS-induced mouse preterm birth (PTB) model; assay type: in vivo, mouse (CD-1); details: gestational day 16, LPS 10 μg/animal i.p., L-4d 20 mg/day/animal by s.c. osmotic pump after 0.1 mg/animal i.p. bolus, n = 5 (saline n = 4)
# Description: (§3) The ability of peptide L-4d to delay labor in vivo was next tested in mice near term and treated with lipopolysaccharide (LPS) Escherichia coli endotoxin, as a pathogen associated molecular pattern, which is known to promote a general inflammatory state resulting in prostaglandin synthesis and induced premature delivery. Following LPS injection into mice (n = 4–5) at gestational day 16, all the animals tested delivered within 12−24 h.
# Timed-pregnant CD-1 mice at 16 days gestation (normal term is 19.2 days) were anesthetized with isoflurane (2%). Primed osmotic pumps (Alzet pump, Alzet, Cupertino, CA) containing either saline (n = 4) or compound L-4d (20 mg/day/animal, n = 5) were respectively subcutaneously implanted on the backs of the animals; infusion of peptide was immediately preceded by bolus injection of peptide (0.1 mg/animal intraperitoneally). Within 15 min after placement of the pumps, animals were injected with lipopolysaccharide (LPS) Escherichia coli endotoxin (10 μg/animal intraperitoneally) to mimic the inflammatory/infectious component of human preterm labor. Animals were inspected every hour for the first 18 h and every 2 h thereafter to document the timing of birth. Results are expressed as percentages of animals delivered following the injection of LPS [57]. […]
# [4] = system: murine myometrial tissue (KCl-induced tension); assay: mean tension induced by KCl (positive control) in mouse myometrial tissue; design: species or system mouse (CD-1); details: post-partum mouse myometrial tissue
# Description: as §1
# as §2, with “The tissue baths contained 20 mL of Krebs buffer of the following composition (in mM): 118 NaCl, 4.7 KCl, 2.5 CaCl2, 0.9 MgSO4, 1 KH2PO4, 11.1 glucose, and 23 NaHCO3 (pH 7.4). The buffer was equilibrated with 95% oxygen/5% carbon dioxide at 37 °C.” left out, “Experiments were begun after 1 h equilibration.” left out, “At the start of each experiment, mean tension of spontaneous myometrial contractions was considered as a reference response.” left out
# [5] = solubility in water (observation on handling); assay type: physicochemical; details: qualitative observation on the purified, freeze-dried peptide
# Description: Linear sequences of L- and D-PDC31 linked to 2-chlorotrityl resin (L- and D-1) were obtained by solid phase peptide synthesis using standard Fmoc/t-Bu protocols. Peptide resin L-1 was treated with the appropriate aldehyde 2 (Scheme 1). The imine resin was washed to remove excess aldehyde, and reductive amination was performed using sodium cyanoborohydride to provide secondary amine resin 3. Removal of the protecting groups and resin cleavage were achieved using a cocktail of 95:2.5:2.5 TFA:TES:H2O to provide N-alkyl- and N-PEG-grafted peptides 4, which were purified by RP-HPLC (Table 1). […] An inseparable mixture of mono- and bis-N-alkyl peptides was isolated by HPLC from reaction with aldehyde of shorter chain length.
# Increased lipophilic character may promote peptide aggregation and decrease solubility in aqueous solvent. […] For biological assays, solubility issues were surmounted by forming salts and using small amounts of DMSO. The influence of their amphiphilic character during purification by RP-HPLC and double alkylation from the reductive amination sequence may account for the lower isolated yields of peptides 4, 7 and 8.
# [6] = system: prostaglandin F2α receptor (FP); details: cited from earlier work
# Description: The development of PDC31 originated from a library of sequences based on the second extracellular loop of FP. Short lead peptides were analyzed initially using in vitro and ex vivo analyses. […] Moreover, addition of the dodecyl chain enhanced plasma stability.
# [7] = system: LPS-induced preterm delivery in pregnant CD-1 mice; details: cited from earlier work
# Description: as §3
# [8] = system: murine myometrial tissue (PGF2α-induced contractions; FP); details: cited from earlier work
# Text: Moreover, addition of the dodecyl chain enhanced plasma stability.
# [9] = system: intrauterine pressure and pain in women with primary dysmenorrhea; details: phase Ib; cited from earlier work
# Text: The prostaglandin F2α receptor (FP) is a promising target for delaying labor because of its relevant involvement in parturition. At the beginning of labor and preterm labor, FP expression increases. […] Targeting FP, the tocolytic prototype PDC31 is currently undergoing clinical trials.
compound,measurement,setting,value
"CCCCCCCCCCCCN[C@H](C(=O)N[C@@H](CC(C)C)C(=O)NCC(=O)N[C@@H](Cc1c[nH]cn1)C(=O)N[C@@H](CCCNC(N)=O)C(=O)N[C@@H](CC(=O)O)C(=O)N[C@@H](Cc1ccc(O)cc1)C(=O)N[C@@H](CCCCN)C(=O)O)[C@@H](C)CC [L-4d, N-Dodecyl-Ile-Leu-Gly-His-Cit-Asp-Tyr-Lys-OH] (HELM PEPTIDE1{[CCCCCCCCCCCCN[C@H](C(=O)[*:2])[C@@H](C)CC].L.G.H.[Cit].D.Y.K}$$$$V2.0)","stability in mouse plasma, in words",[1],still present after 2 hours of incubation
same,effect on PGF2α-induced contractions (mean tension) of myometrial tissue,[2],significant reduction of contractions; also recorded: able to reduce uterine contractions induced by PGF2α; also recorded: significant reduction of PGF2α-induced contractility
same,ability to delay labor (time of delivery) in LPS-induced PTB model,[3],unable to exhibit a statistically significant reduction in the time of delivery; also recorded: failed to prolong labor in vivo; also recorded: inactive in vivo; also recorded: no significant ability to delay labor
same,effect on mean tension induced by KCl (positive control),[4],not affected
"CCCCCCCCCCCC(=O)N[C@H](C(=O)N[C@@H](CC(C)C)C(=O)NCC(=O)N[C@@H](Cc1c[nH]cn1)C(=O)N[C@@H](CCCNC(N)=O)C(=O)N[C@@H](CC(=O)O)C(=O)N[C@@H](Cc1ccc(O)cc1)C(=O)N[C@@H](CCCCN)C(=O)O)[C@@H](C)CC [L-8, N-Dodecanoyl-Ile-Leu-Gly-His-Cit-Asp-Tyr-Lys-OH] (HELM PEPTIDE1{[CCCCCCCCCCCC(=O)[*:2]].I.L.G.H.[Cit].D.Y.K}$$$$V2.0)",solubility in water,[5],poor solubility; also recorded: aqueous solubility issues
same,effect on PGF2α-induced contractions (mean tension) of myometrial tissue,[2],inactive
"CC[C@H](C)[C@H](N)C(=O)N[C@@H](CC(C)C)C(=O)NCC(=O)N[C@@H](Cc1c[nH]cn1)C(=O)N[C@@H](CCCNC(N)=O)C(=O)N[C@@H](CC(=O)O)C(=O)N[C@@H](Cc1ccc(O)cc1)C(=O)N[C@@H](CCCCN)C(=O)O [L-PDC31, H-Ile-Leu-Gly-His-Cit-Asp-Tyr-Lys-OH] (HELM PEPTIDE1{I.L.G.H.[Cit].D.Y.K}$$$$V2.0)",time to complete degradation in mouse plasma,[1]; 5 µL 0.4 mM peptide in 95 µL serum,≤ 5 min
same,"stability in mouse plasma, in words",[1],rapidly degraded in plasma
H-ile-leu-Gly-his-arg-asp-tyr-lys-OH [PDC113],"activity as FP inhibitor, in words",[6],active FP inhibitor
H-ile-leu-Gly-his-cit-asp-tyr-lys-OH [PDC31],efficacy,[6]; FP inhibition,> 85%
same,IC50,"[6]; FP inhibition, read-out: potency (IC50)",13 nM
same,ability to delay labor in the PTB model,[7],delay labor
same,effect on spontaneous and PGF2α-induced contractions in postpartum mice myometrium,[8],reduce both the strength and length of spontaneous and PGF2α-induced contractions
same,safety and effect on intrauterine pressure and pain,[9],safe in reducing intrauterine pressure and pain associated with excessive uterine contractility
N-Octadecanyl-Ile-Leu-Gly-His-Cit-Asp-Tyr-Lys-OH [L-4f],solubility in water,[5],required a small amount of DMSO to completely dissolve; also recorded: aqueous solubility issues; also recorded: poorly soluble in water
same,effect on PGF2α-induced contractions (mean tension) of myometrial tissue,[2],trends suggesting protective effects; also recorded: not statistically significant
